Laboratory results from patent US11293023B2, “Tunable endogenous protein degradation” (Dana-Farber Cancer Institute, Inc., priority 2015, dated 2022).

Tests used:
Assay type in all cases: cell-based
FKBP12WT = biological target: T1, FKBP12WT (Homo sapiens, UniProt P62942); experiment: Immunoblot of wild type FKBP12 in 293FT cells (selectivity control); conditions: 293FT CRBN-WT or CRBN−/−, indicated concentrations, 4 hours
T1 construct: expressed in transfected cells; host or cells: 293FT cells (CRBN-WT or CRBN-/-)
T1 sequence (P62942 whole entry): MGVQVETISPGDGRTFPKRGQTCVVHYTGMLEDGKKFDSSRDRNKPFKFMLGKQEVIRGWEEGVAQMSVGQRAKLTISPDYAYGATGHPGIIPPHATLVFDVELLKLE
Procedure: (§1) 293FT cells (CRBN-WT or CRBN−/−) expressing either HA-tagged FKBP12WT or FKBP* were treated with indicated concentrations of dFKBP7 for 4 hours.
(§2) Isogenic 293FT cells (CRBN-WT or CRBN−/−) expressing either FKBP12WT or FKBP* were treated with 100 nM of either dFKBP7 or dFKBP13 for 4 hours.
(§3) The dTAG is predicated on the selectivity of FKBP* specific ligands over endogenous, wild type FKBP. […] 293FT cells (CRBN-WT or CRBN−/−) expressing either HA-tagged FKBP12WT or FKBP* were treated with indicated concentrations of dFKBP7 for 4 hours.
(§4) Isogenic 293FT cells (CRBN-WT or CRBN−/−) were engineered to expressed either FKBP12WT or FKBP*. Cells were treated with 100 nM of either dFKBP7 or dFKBP13 for 4 hours before lysates were prepared for western immunoblot analysis.

[1] = biological target: T2, FKBP* (FKBP12 F36V), HA-tagged (Homo sapiens, UniProt P62942, F37V); experiment: Immunoblot of FKBP* degradation in 293FT cells (CRBN-WT or CRBN−/−); conditions: for degradation of FKBP*: 100 nM
T2 construct: expressed in transfected cells; host or cells: 293FT cells (CRBN-WT or CRBN-/-)
T2 sequence (P62942 2-108 F37V limits assumed): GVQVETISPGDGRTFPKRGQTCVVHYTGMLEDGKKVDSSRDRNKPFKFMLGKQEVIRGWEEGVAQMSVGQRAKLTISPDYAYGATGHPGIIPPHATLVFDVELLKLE
Procedure: as §1, §2
Isogenic 293FT cells (CRBN-WT or CRBN−/−) expressing HA-tagged FKBP* were treated with the indicated dose of dFKBP13 for 4 hours.
(§5) 293FT cells (CRBN-WT) expressing FKBP* were pretreated with 1 uM Carfilzomib (proteasome inhibitor), 0.5 uM MLN4924 (neddylation inhibitor), and 10 uM Lenalidomide (CRBN binding ligand) for two hours prior to a 4 hour treatment with dFKBP13.
as §3, with “FKBP. In 293T cells expressing wild type FKBP12 or FKBP*, dFKBP7 induces targeted degradation only in FKBP* expressing cells.” for “FKBP.”
as §4, with “In 293T cells expressing wild type FKBP12 or FKBP*, treatment with dFKBP7 and dFKBP13 induces targeted degradation only in FKBP* expressing cells. Isogenic” for “Isogenic”
In an effort to define the optimal concentration of dFKB13 heterobifunctional compound to induce degradation of FKBP*, degradation was measured upon treatment with increasing concentrations of dFKBP13. Isogenic 293FT cells (CRBN-WT or CRBN−/−) were engineered to expressed HA-tagged FKBP*. Cells were treated with the indicated dose of dFKBP13 for 4 hours before lysates were prepared for western immunoblot analysis.
as §5, with “were engineered to express FKBP*. Cells” for “expressing FKBP*”, “dFKBP13. Lysates were prepared and western immunoblot analysis performed.” for “dFKBP13.”

[2] = test system: NIH3T3 cells expressing dTAG-KRASG12V; experiment: Propidium iodide cell cycle analysis of NIH3T3 cells expressing dTAG-KRASG12V; conditions: 48 hours
Procedure: FIG. 20 is a bar graph illustrating NIH3T3 cells expressing dTAG-KRASG12V treated with dFKBP7 and dFKBP13 for 48 hours to induce targeted dTAG-KRASG12V degradation. Fixed cells were stained with propidium iodide and cell cycle analysis was performed.
NIH3T3 cells were engineered to express dTAG-KRASG12V. NIH3T3 cells expressing dTAG-KRASG12V were treated with dFKBP7 and dFKBP13 for 48 hours to induce targeted dTAG-KRASG12V degradation. Fixed cells were stained with propidium iodide and cell cycle analysis was performed.

[3] = test system: dTAG-KRAS alleles (WT, G12C, G12D, G12V, G13D, Q61L, Q61R); experiment: Immunoblot of dTAG-KRAS WT and mutant alleles in NIH3T3 cells; conditions: 1 uM, 24 hours
Procedure: FIG. 16 is an immunoblot of NIH3T3 cells expressing KRAS alleles either WT or mutant forms of amino acid glycine 12 (G12C, G12D, and G12V) treated with 1 uM of dFKBP13 for 24 hours.
FIG. 17 is an immunoblot of NIH3T3 cells expressing either WT or mutant KRAS alleles (G13D, Q61L, and Q61R) treated with 1 uM of dFKBP13 for 24 hours.
(§6) The dFKBP13 heterobifunctional compound potently degrades dTAG-KRAS mutant alleles. NIH3T3 cells were engineered to express KRAS alleles either WT or mutant forms of amino acid glycine 12 (G12C, G12D, and G12V). Western blotting of NIH3T3 cells expressing dTAG fused to the N-terminus of KRAS alleles were treated with 1 uM of dFKBP13 for 24 hours. Cells were harvested and immunoblotted to measure degradation of dTAG-KRAS and downstream surrogates of KRAS signaling (e.g. pMEK and pAKT).
as §6, with “express” for “express KRAS alleles”, “KRAS alleles (G13D, Q61L,” for “forms of amino acid glycine 12 (G12C, G12D,”, “Q61R).” for “G12V).”

[4] = 293FT CRBN-WT or CRBN−/−, 4 hours

In the case of CC[C@H](C(=O)N1CCCC[C@H]1C(=O)O[C@H](CCc1ccc(OC)c(OC)c1)c1cccc(OCC(=O)NCCCOCCOCCOCCCNC(=O)COc2cccc3c2C(=O)N(C2CCC(=O)NC2=O)C3=O)c1)c1cc(OC)c(OC)c(OC)c1 (stereo partly shown) [dFKBP7], the “degradation of HA-tagged FKBP12WT” value (FKBP12WT) is reported as “not FKBPWT”, the “degradation of FKBP*” value [1, 4] is reported as “CRBN-dependent degradation of FKBP*” and the “degradation of HA-tagged FKBP*” value ([1]; 293FT CRBN-WT or CRBN−/−, indicated concentrations, 4 hours) is reported as “CRBN-dependent degradation of FKBP*”. For the same molecule, the “cell cycle profile (S-phase entry)” value [2] was “diminished S-phase entry”.
CC[C@H](C(=O)N1CCCC[C@H]1C(=O)O[C@H](CCc1ccc(OC)c(OC)c1)c1cccc(OCC(=O)NCCCCCCOc2cccc3c2C(=O)N(C2CCC(=O)NC2=O)C3=O)c1)c1cc(OC)c(OC)c(OC)c1 (stereo partly shown) [dFKBP13] was tested, and the “degradation of FKBP*” value [1, 4] was “CRBN-dependent degradation of FKBP*”, the “dose dependence of degradation of HA-tagged FKBP*” value ([1]; 293FT CRBN-WT or CRBN−/−, indicated dose, 4 hours) was “dose- and CRBN-dependent degradation” and the “mechanism of FKBP* degradation” value ([1]; 293FT CRBN-WT, 4 hour treatment after inhibitor pretreatment) was “CRBN- and proteasome-dependent degradation”. For the same molecule, the “cell cycle profile (S-phase entry)” value [2] was “diminished S-phase entry”, the “degradation of dTAG-KRAS alleles” value ([3]; G12C, G12D, G12V) was “potent degradation of WT and mutant KRAS alleles” and the “degradation of dTAG-KRAS alleles” value ([3]; G13D, Q61L, Q61R) was “potent degradation of WT and mutant KRAS alleles”.
